{"source": "patent US20260365696A1", "about": "“INHIBITORS OF PTP1B / NCK1 INTERACTION AND METHODS OF MAKING AND USING SAME” (Radella Pharmaceuticals LLC, priority 2023, published 2026)", "key": {"[1]": {"test": "28-day pharmacodynamic and liver toxicity study in C57BL/6 mice", "type": "in vivo, mouse", "conditions": "28 days; for body weight: 15 or 30 mg/kg IP daily; for signs of physiological or hepatic toxicity: 15 or 30 mg/kg daily IP", "text": "Animals: C57BL/6 male mice (−3 months) were purchased from Charles River, UK. All animals were housed and tested following European (Directive on the Protection of Animals used for Scientific Purposes, 2010/63/EU) and UK Home Office regulations. Experiments were approved by the University Ethics Board and carried out in accordance with the Animal (Scientific Procedures) Act 1986 and following ARRIVE guidelines.\nTreatments: Mice were randomized in to the five experimental groups: Control (n=9); MD17, 15 mg/kg (n=6); MD17, 30 mg/kg (n=6); MD20, 15 mg/kg (n=6); and MD20, 30 mg/kg (n=6). MD17 and MD20 compounds were administered to mice once daily via intraperitoneal (IP) injection for a period of 28 consecutive days at a dose of either 15 or 30 mg/kg. Peptides were kept in −20 °C and dissolved in sterile phosphate buffered saline (PBS) freshly every day before the injection. Control mice received a daily PBS injection. Three mice died during the study, and the final number of animals in each group was: Control (n=9); MD17, 15 mg/kg (n=5); MD17, 30 mg/kg, (n=6); MD20, 15 mg/kg (n=5); and MD20, 30 mg/kg (n=5). All mice had ad libitum access to food and water and were kept in a 12 h light/dark cycle.\nBodyweights and body mass composition: body weights were recorded during the study and fat and lean mass composition was analysed using an EchoMRI scanner (EchoMedical Systems, Houston, TX, U.S.A.).\nFasted glucose: All animals were 5 h-fasted and tail glucose measured using an AlphaTRAK 2 glucose strips and glucometer (Abbot, UK).\nSerum assays: Trunk-derived blood was collected from 5 h-fasted mice in to serum separator microtubes and kept at −80 °C. Serum was used for insulin (#EZRMI-13K, Merck), leptin (#90030, Crystal Chem), free fatty acids (FFA; #mak044, Sigma-Aldrich), alanine and aspartate aminotransferases (ALT and AST; #ab105134 and #ab105135, Abcam) analyses.\nStatistical analyses: Data were expressed as means±SEM and were analysed using one- or two-way ANOVA with Bonferroni post hoc tests, as appropriate. GraphPad Prism (V8, GraphPad Software, Inc., San Diego, California, USA) was used for analyses. P-values <0.05 were considered significant."}, "[2]": {"biological_target": "T1, interaction between PTP1B and the SH3-2 domain of NCK1 (Homo sapiens, UniProt P16333)", "T1 construct": "FLAG-PTP1B from HEK293 lysate", "test": "GST pull-down / co-immunoprecipitation screen for disruption of the PTP1B / NCK1 SH3-2 interaction", "type": "binding", "conditions": "peptide 1 mM; for disruption of the interaction between PTP1B and the SH3-2 domain of NCK1: GST-SH3-2 and FLAG-PTP1B", "description": "FIG. 4A depicts an immunoblot showing that certain peptides prevent co-immunoprecipitation of FLAG-PTP1B and GST-tagged SH3-2 domain of NCK1 (“SH3”). GST was fused to full-length NCK1 (“Nck1”), all SH3 domains of NCK1 (“SH3”), the NCK1 SH2 domain (“SH2”), the NCK1 SH3-1 domain (“SH3 1”), the NCK1 SH3-2 domain (“SH3 2”), and the NCK1 SH3-3 domain (“SH3 3”). GST alone was used as a negative control (“GST”). FLAG-PTP1B was incubated with the indicated bead-bound GST-fusion protein, and FLAG-PTP1B was detected in the IP eluate by western blotting. The outlined region in column “SH3-2” identifies the PTP1B band. For GST-SH3-2 and FLAG-PTP1B, the mixture was further incubated with one of peptides A through K, (1 mM). FIG. 4B depicts an input control for the immunoblot. FIG. 4C depicts a Ponceau stain for the immunoblot, which was used to measure total protein.\nConstruction and Purification of GST constructs: Human NCK1 (NM_006153) human cDNA was obtained (Origene, MD, USA). GST fusion constructs (GST-only control, GST full length NCK1, GST all SH3 domains of NCK1, GST SH2 domain of NCK1, GST SH3-1, GST SH3-2 and GST SH3-3) were amplified, double digested (EcoRI and XhoI, New England Biolabs), ligated in to pGEX-6P-2 vector (#M2200S, New England Biolabs; #GE28-9546-50, Merck), transformed in to DH5α E. coli cells (#C2987H, NEB) and purified using a plasmid preparation kit according to manufacturer's instructions (#T1010, New England Biolabs). GST-constructs were transformed in to BL21-Gold E. coli cells (#230134, Agilent), and GST-fusion proteins were produced, extracted, and bound to GST beads as described in Example 1. Beads were washed three times with STE buffer and stored at 4 °C.\nGST pull-down experiments for compounds screening against FLAG PTP1B interaction with SH3-2 domain of NCK1. GST-bound agarose beads of SH3-2 domain were incubated overnight at 4 °C with lysates from HEK293 cells overexpressing FLAG PTP1B protein, to gether with various peptide compounds (1 mM) to screen for inhibition of PTP1B-NCK1 binding. Following overnight incubation, agarose beads were three times washed in STE buffer, and proteins were eluted in SDS-Laemmli buffer by heating at 95 °C for 10 min. Samples were spun at 12,000 rpm for 2 min, and the liquid fraction was transferred in to 1 mL Eppendorf tubes. Proteins were separated and detected by chemiluminescent Western Blotting (PEQLAB, Germany) using anti-FLAG HRP antibody (#A8592, Sigma)."}}}
{"substance": "Ac-PPPEHIPPPPRPPKR-NH2 [MD17]", "values": [{"measurement": "body weight", "setting": "[1]", "value": "No statistically significant differences"}, {"measurement": "signs of physiological or hepatic toxicity", "setting": "[1]", "value": "did not induce any obvious signs of physiological or hepatic toxicity"}, {"measurement": "binding to full-length NCK1 (concluded from pull-down)", "setting": "[2]", "value": "bind to full-length NCK1, specifically, at SH3-2 domain"}, {"measurement": "disruption of the interaction between PTP1B and the SH3-2 domain of NCK1", "setting": "[2]", "value": "disrupt the interaction between PTP1B and the SH3-2 domain of NCK1"}]}
{"substance": "Ac-PRPPKR-NH2 [MD20, Ac-PRPPKR-NH2]", "values": [{"measurement": "% change in fat mass", "setting": "[1]; 30 mg/kg IP daily, vs control", "value": "decreased"}, {"measurement": "percentage change in body weight pre- versus post-treatment", "setting": "[1]; 30 mg/kg IP daily, vs control", "value": "significant decrease in % change"}, {"measurement": "body weight", "setting": "[1]", "value": "No statistically significant differences"}, {"measurement": "signs of physiological or hepatic toxicity", "setting": "[1]", "value": "did not induce any obvious signs of physiological or hepatic toxicity"}, {"measurement": "binding to full-length NCK1 (concluded from pull-down)", "setting": "[2]", "value": "bind to full-length NCK1, specifically, at SH3-2 domain"}, {"measurement": "disruption of the interaction between PTP1B and the SH3-2 domain of NCK1", "setting": "[2]", "value": "disrupt the interaction between PTP1B and the SH3-2 domain of NCK1"}]}
